This note sets out measurements from patent publication US9765069B2, “Antimicrobial compounds” (OXFORD UNIVERSITY INNOVATION LIMITED, priority 2012, dated 2017).

In brackets after ≈: the same amount, converted by molar mass.

One data set relates to H3. Briefly: MIC determination (bacteria), strain H3. It is filed as cell-based, H. influenzae. To be noted: haemophilus test medium. Here is the method:
(§1) MIC determination (bacteria); MICs were determined based on Clinical and Laboratory Standards Institute (CLSI) methodology (Methods for dilution antimicrobial susceptibility tests for bacteria that grow aerobically; Approved Standard—seventh edition. 2006, M7-A7, CLSI, Wayne Pa.) by a 2-fold broth dilution technique in Mueller Hinton (pH7.4 Biorad). For S. pneumoniae, the medium was supplemented with 2.5% laked horse blood. For H. influenzae, the medium was haemophilus test medium (H.T.M.). Overnight cultures were diluted to obtain the final inoculum of 10^5 cfu/well. Incubation was 37° C. overnight in ambient air. The MIC was defined as the lowest concentration which inhibited all visual growth and expressed in μg/ml. For each bacterial species, all of the molecules were tested in the same experiment in order to give a head-to-head comparison.

The next data set concerns E1. The experiment in a line: MIC determination (bacteria), strain E1. As to conditions: 2-fold broth dilution. In kind it is cell-based, enterococcus. As for the experimental part: as §1
In another data set the test system is P9. The experiment in a line: MIC determination (bacteria), strain P9. In kind it is cell-based, S. pneumoniae. To be noted: 2-fold broth dilution. As for the experimental part: as §1
Background: In broth dilution the organism is exposed to a series of concentrations in liquid medium.

Data set [1] concerns human embryonic kidney 293 cells. The experiment in a line: in vitro toxicities against human embryonic kidney 293 cells. As to conditions: human embryonic kidney 293 cells. It is filed as cell-based. The text has this:
(§2) These properties can be determined according to techniques that are well known in the art.

Data set [2] can be described thus: aqueous solubility at pH 7.4. It is filed as physicochemical. To be noted: aqueous solubility at pH 7.4 (water with 2% DMSO).
Text: as §2

The next data set relates to E2. The experiment in a line: MIC determination (bacteria), strain E2. It is filed as cell-based, enterococcus. To be noted: 2-fold broth dilution. As for the experimental part:
as §1

The test system of data set [3] is S2 (S. aureus 2, MRSA in vivo). Briefly: MIC determination (bacteria), strain S2. As to conditions: 2-fold broth dilution. It is filed as cell-based. As for the experimental part:
as §1

The subject of the next data set is P1. The experiment in a line: MIC determination (bacteria), strain P1. It is filed as cell-based, S. pneumoniae. To be noted: 2-fold broth dilution. Here is the method:
as §1

The subject of data set [4] is mammalian_red blood cell membrane. Briefly: In vitro mammalian red blood cell membrane lysis activity. As to conditions: Active or inactive at 100 μM. In kind it is cell-based.
Text: as §2

In the next data set the test system is S. aureus membrane. The experiment in a line: In vitro activity in depolarization of S. aureus membrane. In kind it is cell-based. To be noted: read-out: DEP (IC50).
Text: as §2

The test system of a further data set is S1. The experiment in a line: MIC determination (bacteria), strain S1. In kind it is cell-based, S. aureus. As to conditions: 2-fold broth dilution. As for the experimental part:
as §1

The test system of a further data set is P9B. Briefly: MIC determination (bacteria), strain P9B. It is filed as cell-based, S. pneumoniae. As to conditions: 2-fold broth dilution. Here is the method:
as §1

In another data set the test system is S4. Briefly: MIC determination (bacteria), strain S4. It is filed as cell-based, S. aureus. To be noted: 2-fold broth dilution. As for the experimental part:
as §1

A further data set has as its system S26. The experiment in a line: MIC determination (bacteria), strain S26. In kind it is cell-based, S. aureus. As to conditions: 2-fold broth dilution. Here is the method: as §1
The test system of data set [5] is human peripheral blood cells. Briefly: in vitro toxicities human peripheral blood cells. In kind it is cell-based. To be noted: human peripheral blood cells.
Text: as §2

A further data set relates to H4. Briefly: MIC determination (bacteria), strain H4. In kind it is cell-based, H. influenzae. To be noted: haemophilus test medium. Here is the method: as §1
In the next data set the target is E. Coli RNAP (Escherichia coli, UniProt P0A8T7+P0A8V2). Briefly: In vitro activity against E. Coli RNAP. It is filed as biochemical.
Chain of E. Coli RNAP (P0A8V2 whole entry): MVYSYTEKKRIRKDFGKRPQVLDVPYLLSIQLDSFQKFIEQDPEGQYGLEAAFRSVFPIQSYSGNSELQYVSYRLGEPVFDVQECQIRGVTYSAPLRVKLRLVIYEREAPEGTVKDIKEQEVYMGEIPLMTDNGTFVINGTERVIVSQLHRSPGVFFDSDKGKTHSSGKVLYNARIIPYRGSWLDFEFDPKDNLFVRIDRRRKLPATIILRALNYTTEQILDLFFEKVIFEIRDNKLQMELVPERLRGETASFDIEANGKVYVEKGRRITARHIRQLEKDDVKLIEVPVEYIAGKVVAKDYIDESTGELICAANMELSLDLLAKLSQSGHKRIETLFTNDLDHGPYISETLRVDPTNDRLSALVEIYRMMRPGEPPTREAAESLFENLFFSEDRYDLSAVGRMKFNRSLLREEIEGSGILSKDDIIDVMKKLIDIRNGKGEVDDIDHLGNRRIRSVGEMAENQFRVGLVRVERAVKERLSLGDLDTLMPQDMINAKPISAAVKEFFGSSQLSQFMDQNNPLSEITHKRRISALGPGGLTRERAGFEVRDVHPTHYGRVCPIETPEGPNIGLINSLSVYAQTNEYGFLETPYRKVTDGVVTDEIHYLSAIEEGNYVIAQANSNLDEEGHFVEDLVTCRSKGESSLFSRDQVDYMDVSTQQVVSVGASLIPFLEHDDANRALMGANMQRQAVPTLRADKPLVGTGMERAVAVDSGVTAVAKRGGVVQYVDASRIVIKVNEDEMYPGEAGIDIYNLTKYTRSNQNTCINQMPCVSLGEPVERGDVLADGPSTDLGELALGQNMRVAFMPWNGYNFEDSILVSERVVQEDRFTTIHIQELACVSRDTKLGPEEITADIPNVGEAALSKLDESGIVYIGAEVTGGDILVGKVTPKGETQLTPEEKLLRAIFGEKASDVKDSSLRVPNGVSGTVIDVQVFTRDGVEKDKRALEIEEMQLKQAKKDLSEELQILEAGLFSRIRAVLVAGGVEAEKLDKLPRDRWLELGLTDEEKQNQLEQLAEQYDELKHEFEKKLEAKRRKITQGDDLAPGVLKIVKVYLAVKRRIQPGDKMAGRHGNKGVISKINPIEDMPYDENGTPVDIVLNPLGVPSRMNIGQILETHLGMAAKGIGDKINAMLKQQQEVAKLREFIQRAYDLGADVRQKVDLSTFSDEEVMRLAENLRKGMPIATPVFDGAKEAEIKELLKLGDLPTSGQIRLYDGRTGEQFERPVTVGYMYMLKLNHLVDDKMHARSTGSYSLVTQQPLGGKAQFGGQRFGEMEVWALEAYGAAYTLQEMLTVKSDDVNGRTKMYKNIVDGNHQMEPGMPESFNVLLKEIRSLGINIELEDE
Chain of E. Coli RNAP (P0A8T7 whole entry): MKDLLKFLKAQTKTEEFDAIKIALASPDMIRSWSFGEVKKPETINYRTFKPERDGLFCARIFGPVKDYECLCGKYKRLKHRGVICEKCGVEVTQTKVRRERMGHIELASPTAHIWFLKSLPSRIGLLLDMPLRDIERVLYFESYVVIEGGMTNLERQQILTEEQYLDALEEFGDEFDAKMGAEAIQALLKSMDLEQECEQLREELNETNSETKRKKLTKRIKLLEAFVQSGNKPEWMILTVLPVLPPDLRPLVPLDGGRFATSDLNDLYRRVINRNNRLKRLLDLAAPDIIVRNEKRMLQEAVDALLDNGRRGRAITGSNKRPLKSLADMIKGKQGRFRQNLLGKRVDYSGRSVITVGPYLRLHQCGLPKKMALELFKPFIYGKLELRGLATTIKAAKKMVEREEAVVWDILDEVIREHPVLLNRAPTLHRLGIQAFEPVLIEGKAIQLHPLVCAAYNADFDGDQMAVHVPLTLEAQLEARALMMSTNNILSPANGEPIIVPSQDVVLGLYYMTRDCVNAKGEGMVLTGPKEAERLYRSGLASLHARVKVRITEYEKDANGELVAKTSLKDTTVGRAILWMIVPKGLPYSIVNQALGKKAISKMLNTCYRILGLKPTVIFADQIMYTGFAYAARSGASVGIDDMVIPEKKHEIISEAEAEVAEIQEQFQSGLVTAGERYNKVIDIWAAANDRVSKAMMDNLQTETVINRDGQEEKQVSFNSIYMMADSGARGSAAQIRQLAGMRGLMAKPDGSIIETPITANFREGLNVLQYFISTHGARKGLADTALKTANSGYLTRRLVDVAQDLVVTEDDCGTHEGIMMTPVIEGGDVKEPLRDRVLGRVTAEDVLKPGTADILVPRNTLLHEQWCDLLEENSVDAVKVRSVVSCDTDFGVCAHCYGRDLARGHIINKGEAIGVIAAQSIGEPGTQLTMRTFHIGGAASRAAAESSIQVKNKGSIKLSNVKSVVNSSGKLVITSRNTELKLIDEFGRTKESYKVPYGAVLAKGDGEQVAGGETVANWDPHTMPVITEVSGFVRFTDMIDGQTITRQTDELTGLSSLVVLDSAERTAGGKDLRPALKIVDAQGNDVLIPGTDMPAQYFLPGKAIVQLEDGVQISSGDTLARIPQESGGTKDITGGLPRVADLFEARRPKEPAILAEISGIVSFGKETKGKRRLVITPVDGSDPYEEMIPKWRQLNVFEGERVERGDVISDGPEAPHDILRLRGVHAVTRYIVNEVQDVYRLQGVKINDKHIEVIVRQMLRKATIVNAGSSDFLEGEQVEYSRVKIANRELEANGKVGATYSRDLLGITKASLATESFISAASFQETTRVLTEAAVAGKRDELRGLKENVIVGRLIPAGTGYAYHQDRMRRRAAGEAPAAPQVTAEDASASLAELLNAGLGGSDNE
Chain of E. Coli RNAP (P0A7Z4 whole entry partner): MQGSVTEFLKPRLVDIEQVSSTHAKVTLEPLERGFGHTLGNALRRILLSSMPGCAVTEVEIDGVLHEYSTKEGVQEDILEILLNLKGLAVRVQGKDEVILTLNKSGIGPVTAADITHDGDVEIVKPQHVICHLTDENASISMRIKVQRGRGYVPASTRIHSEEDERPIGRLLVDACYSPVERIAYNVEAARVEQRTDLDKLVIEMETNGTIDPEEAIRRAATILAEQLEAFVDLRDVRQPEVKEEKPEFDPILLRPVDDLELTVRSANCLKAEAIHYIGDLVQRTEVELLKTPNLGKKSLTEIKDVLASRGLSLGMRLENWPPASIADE
Chain of E. Coli RNAP (P0A800 whole entry partner): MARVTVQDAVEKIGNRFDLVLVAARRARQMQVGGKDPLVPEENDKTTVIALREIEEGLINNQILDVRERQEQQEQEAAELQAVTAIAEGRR
Text: as §2

For `CCCCCCCCCC(O)=C1C(=O)C(CCSC)N(C(=O)Cc2cccs2)C1=O` (stereo not drawn) [24m], the “MIC H3” value against H3 (Table 1) was 16 µg/mL (≈ 35.4 µM). For the same compound, in the data set with E1 (Table 1), the “MIC E1” value came out at 2 µg/mL (≈ 4.43 µM). Also, the “MIC P9” value against P9 (Table 1) is 0.25 µg/mL (≈ 0.554 µM). For the same compound, the “Hek293 (LD50, μM)” value in data set [1] is 30.3 µM. In addition, in data set [2], the “SOL” value was more than 300 µM. Further, the “MIC E2” value against E2 (Table 1) was 0.5 µg/mL (≈ 1.11 µM). Besides, the “MIC S2” value in data set [3] (Table 1) was 2 µg/mL (≈ 4.43 µM). For the same compound, in the data set with P1 (Table 1), the “MIC P1” value was 0.5 µg/mL (≈ 1.11 µM). Moreover, in data set [4], the “RBC membrane lysis activity (active/inactive)” value was “Active”. Further, in the data set on S. aureus membrane, the IC50 (in general, the concentration that inhibits the measured activity by half) is more than 100 µM. In the data set with S1 (Table 1), the “MIC S1” value came to 2 µg/mL (≈ 4.43 µM). In the data set with P9B (Table 1), the “MIC P9B” value is 4 µg/mL (≈ 8.86 µM). The “MIC S4” value against S4 (Table 1) was 2 µg/mL (≈ 4.43 µM). The “MIC S26” value against S26 (Table 1) is 4 µg/mL (≈ 8.86 µM). In data set [5], the “PMBC (LD50, μM)” value was 90.9 µM. Moreover, in the data set with H4 (Table 1), the “MIC H4” value is 4 µg/mL (≈ 8.86 µM).
Turning to `CC(C)CC1C(=O)C(=C(O)CCCCCc2ccccc2)C(=O)N1C(=O)c1ccccc1` (stereo not drawn) [30a], the “MIC H3” value against H3 (Table 2) was more than 64 µg/mL. Also, the “MIC E1” value against E1 (Table 2) was found to be 2 µg/mL (≈ 4.61 µM). Besides, the “MIC P9” value in the data set with P9 (Table 2) is 1 µg/mL (≈ 2.31 µM). For the same compound, in [1], the “Hek293 (LD50, μM)” value is more than 90.9 µM. Besides, in data set [2], the “SOL” value was more than 300 µM. Besides, the “MIC E2” value against E2 (Table 2) worked out at 2 µg/mL (≈ 4.61 µM). The “MIC S2” value in data set [3] (Table 2) turned out to be 2 µg/mL (≈ 4.61 µM). For the same compound, in the data set on P1 (Table 2), the “MIC P1” value turned out to be 1 µg/mL (≈ 2.31 µM). For the same compound, the “RBC membrane lysis activity (active/inactive)” value in data set [4] was “Inactive^d”. For the same compound, the IC50 in the data set on S. aureus membrane was more than 100 µM. In addition, the “MIC S1” value in the data set on S1 (Table 2) was found to be 2 µg/mL (≈ 4.61 µM). Besides, in the data set with P9B (Table 2), the “MIC P9B” value was determined as 4 µg/mL (≈ 9.23 µM). For the same compound, the “MIC S4” value against S4 (Table 2) stood at 2 µg/mL (≈ 4.61 µM). In addition, in the data set on S26 (Table 2), the “MIC S26” value amounted to 4 µg/mL (≈ 9.23 µM). Also, in data set [5], the “PMBC (LD50, μM)” value came to 90.9 µM. Further, the “MIC H4” value against H4 (Table 2 and its footnote f) is 8 µg/mL (≈ 18.5 µM).
Consider `CCCCCCCC(O)=C1C(=O)C(CCSC)N(C(=O)C2CCCCC2)C1=O` (stereo not drawn) [24e], for which the “MIC H3” value with H3 (Table 1) amounted to 16 µg/mL (≈ 39.1 µM). Further, the “MIC E1” value in the data set with E1 (Table 1) turned out to be 0.25 µg/mL (≈ 0.61 µM). The “MIC P9” value with P9 (Table 1) turned out to be 0.12 µg/mL (≈ 0.293 µM). For the same compound, in data set [1], the “Hek293 (LD50, μM)” value was more than 90.9 µM. In addition, the “SOL” value in data set [2] was more than 300 µM. In addition, the “MIC E2” value in the data set on E2 (Table 1) was found to be 0.5 µg/mL (≈ 1.22 µM). Moreover, the “MIC S2” value in data set [3] (Table 1) amounted to 0.5 µg/mL (≈ 1.22 µM). Moreover, the “MIC P1” value against P1 (Table 1) was determined as 0.12 µg/mL (≈ 0.293 µM). For the same compound, the “RBC membrane lysis activity (active/inactive)” value in data set [4] was “Inactive^d”. Also, the IC50 in the data set with S. aureus membrane was more than 100 µM. The “MIC S1” value in the data set on S1 (Table 1) came to 0.5 µg/mL (≈ 1.22 µM). Also, the “MIC P9B” value against P9B (Table 1) was determined as 1 µg/mL (≈ 2.44 µM). In the data set with S4 (Table 1), the “MIC S4” value amounted to 2 µg/mL (≈ 4.88 µM). The “MIC S26” value against S26 (Table 1) was determined as 1 µg/mL (≈ 2.44 µM). Besides, the “PMBC (LD50, μM)” value in data set [5] was more than 90.9 µM. In addition, in the data set with H4 (Table 1), the “MIC H4” value was 2 µg/mL (≈ 4.88 µM).
For the compound `CCCCCCCCCCCC(O)=C1C(=O)C(CCSC)N(C(C)=O)C1=O` (stereo not drawn) [24b], the IC50 at E. Coli RNAP came to 25 µM. In addition, the “MIC H3” value against H3 (Table 1) was found to be 2 µg/mL (≈ 5.03 µM). For the same compound, the “MIC E1” value against E1 (Table 1) is less than 0.06 µg/mL. The “MIC P9” value in the data set with P9 (Table 1) is less than 0.06 µg/mL. Moreover, in [1], the “Hek293 (LD50, μM)” value is 30.3 µM. In addition, the “SOL” value in data set [2] is more than 300 µM. Moreover, the “MIC E2” value with E2 (Table 1) is less than 0.06 µg/mL. Moreover, the “MIC S2” value in data set [3] (Table 1) turned out to be 1 µg/mL (≈ 2.52 µM). Also, the “MIC P1” value in the data set on P1 (Table 1) is less than 0.06 µg/mL. Further, the “MIC S1” value with S1 (Table 1) was determined as 0.25 µg/mL (≈ 0.629 µM). The “MIC P9B” value in the data set with P9B (Table 1) was found to be 0.5 µg/mL (≈ 1.26 µM). The “MIC S4” value with S4 (Table 1) came out at 1 µg/mL (≈ 2.52 µM). Moreover, the “MIC S26” value against S26 (Table 1) was 2 µg/mL (≈ 5.03 µM). The “PMBC (LD50, μM)” value in data set [5] was found to be 90.9 µM. For the same compound, the “MIC H4” value with H4 (Table 1) is 2 µg/mL (≈ 5.03 µM).
Consider `CCCCCCC(=O)N1CC(=O)C(=C(O)CC2CC3CCC2C3)C1=O` (stereo not drawn) [27a], for which the “MIC H3” value against H3 (Table 2) was 4 µg/mL (≈ 11.5 µM). Besides, the “MIC E1” value in the data set with E1 (Table 2) amounted to 1 µg/mL (≈ 2.88 µM). Further, the “MIC P9” value against P9 (Table 2) was determined as 0.5 µg/mL (≈ 1.44 µM). Further, the “Hek293 (LD50, μM)” value in data set [1] was 90.9 µM. Moreover, the “MIC E2” value in the data set on E2 (Table 2) came out at 2 µg/mL (≈ 5.76 µM). The “MIC S2” value in data set [3] (Table 2) amounted to 2 µg/mL (≈ 5.76 µM). Further, the “MIC P1” value with P1 (Table 2) was determined as 1 µg/mL (≈ 2.88 µM). Besides, the “RBC membrane lysis activity (active/inactive)” value in [4] is on record as “Inactive^d”. The IC50 in the data set with S. aureus membrane was more than 100 µM. In the data set on S1 (Table 2), the “MIC S1” value was found to be 1 µg/mL (≈ 2.88 µM). The “MIC P9B” value in the data set on P9B (Table 2) is 4 µg/mL (≈ 11.5 µM). The “MIC S4” value against S4 (Table 2) worked out at 2 µg/mL (≈ 5.76 µM). Also, in the data set on S26 (Table 2), the “MIC S26” value came out at 4 µg/mL (≈ 11.5 µM). In addition, the “PMBC (LD50, μM)” value in [5] was found to be 90.9 µM. Further, in the data set on H4 (Table 2 and its footnote f), the “MIC H4” value is 1 µg/mL (≈ 2.88 µM).
